Assay results reported in patent publication US9556147B2 (Hoffmann-La Roche Inc., priority 2013, dated 2017).

System: B cell receptor-mediated activation of B cells in human whole blood (CD69 expression)
Assay: cells
Details: 20 h, read-out: HWB IC50
Method: After the incubation the plates were read on a BMG Pherastar Fluorescent plate reader (or equivalent) and used to measure the emission energy from the europium donor fluorophore (620 nm emission) and the FRET (665 nm emission). The negative control well values were averaged to obtain the mean minimum. The positive “no inhibitor” control wells were averaged to obtain the mean maximum. […] The mean IC50 and standard deviation will be derived from duplicate curves (singlet inhibition curves from two independent dilutions) using Microsoft Excel. Inhibition of B Cell Activation in Whole Blood Measured by CD69 Expression
Human whole blood (HWB) is obtained from healthy volunteers, with the following restrictions: 24 hr drug-free, non-smokers. Blood is collected by venipuncture into Vacutainer tubes anticoagulated with sodium heparin. Test compounds are diluted to ten times the desired starting drug concentration in PBS (20×), followed by three-fold serial dilutions in 10% DMSO in PBS to produce a nine point dose-response curve. […] HWB (100 μl) is added to each well, and after mixing the plates are incubated at 37 C, 5% CO2, 100% humidity for 30 minutes. […]
Using appropriate excitation and emission wavelengths for the fluorophores used, data are acquired and percent positive cell values are obtained using Cell Quest Software. Results are initially analyzed by FACS analysis software (Flow Jo).

Cn1c2c(cc(Nc3ccc(C(=O)N4CCOCC4)cn3)c1=O)-c1cccc(-n3ncc4cccc(F)c4c3=O)c1C[C@H](O)C2 [Compound 6]
IC50: 4380 nM

CN1CCC[C@H]1c1ccc(Nc2cc3c(n(C)c2=O)CC(O)Cc2c-3cccc2-n2ncc3cc(C(C)(C)C)cc(F)c3c2=O)nc1 (some centres unmarked) [Compound 2]
IC50: 49 nM
